# Reference: ChEMBL document CHEMBL1201862, “PubChem BioAssay data set” (2004)
#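 The compound was tested at five concentrations on cells cultured in 96-well plates, with a 48-hour exposure period. GI50 marks 50% less growth.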 Calls of active or inactive are those of the source. Rule as the data show it: active = GI50 up to about 1.1 µM and inactive = higher.
# Key:
# Test in all cases: NCI-60 cell line screen, 48 h
# 786-0 = tested on: 786-0
# Hs-578T = tested on: Hs-578T
# MDA-MB-435 = tested on: MDA-MB-435
# HCT-15 = tested on: HCT-15
# EKVX = tested on: EKVX
# RXF 393 = tested on: RXF 393
# SNB-75 = tested on: SNB-75
# BT-549 = tested on: BT-549
# MCF7 = tested on: MCF7
# UO-31 = tested on: UO-31
# OVCAR-3 = tested on: OVCAR-3
# SK-OV-3 = tested on: SK-OV-3
# TK-10 = tested on: TK-10
# SK-MEL-2 = tested on: SK-MEL-2
# OVCAR-8 = tested on: OVCAR-8
# CCRF-CEM = tested on: CCRF-CEM
# SF-295 = tested on: SF-295
# SF-268 = tested on: SF-268
# MDA-MB-231 = tested on: MDA-MB-231
# NCI/ADR-RES = tested on: NCI/ADR-RES
# SN12C = tested on: SN12C
# NCI-H23 = tested on: NCI-H23
# SK-MEL-28 = tested on: SK-MEL-28
# KM12 = tested on: KM12
# UACC-257 = tested on: UACC-257
# IGROV-1 = tested on: IGROV-1
# ACHN = tested on: ACHN
# OVCAR-4 = tested on: OVCAR-4
# M14 = tested on: M14
# COLO 205 = tested on: COLO 205
# DU-145 = tested on: DU-145
# PC-3 = tested on: PC-3
# HCC 2998 = tested on: HCC 2998
# UACC-62 = tested on: UACC-62
# NCI-H460 = tested on: NCI-H460
# MOLT-4 = tested on: MOLT-4
# LOX IMVI = tested on: LOX IMVI
# CAKI-1 = tested on: CAKI-1
# SR = tested on: SR
# Malme-3M = tested on: Malme-3M
# HOP-62 = tested on: HOP-62
# HCT-116 = tested on: HCT-116
# HL-60 = tested on: HL-60
# U-251 = tested on: U-251
# K562 = tested on: K562
# HT-29 = tested on: HT-29
# A549 = tested on: A549
# RPMI-8226 = tested on: RPMI-8226
# OVCAR-5 = tested on: OVCAR-5
# SW-620 = tested on: SW-620
# SF-539 = tested on: SF-539
# T47D = tested on: T47D
# NCI-H522 = tested on: NCI-H522
# SNB-19 = tested on: SNB-19
# NCI-H226 = tested on: NCI-H226
compound,measurement,setting,value
O=C(C(Cl)Cl)N(O)c1ccccc1OCc1ccccc1,GI50,786-0,83.2 µM (inactive)
same,GI50,Hs-578T,19.5 µM (inactive)
same,GI50,MDA-MB-435,43.2 µM (inactive)
same,GI50,HCT-15,44.2 µM
same,GI50,EKVX,22 µM (inactive)
same,GI50,RXF 393,86.3 µM (inactive)
same,GI50,SNB-75,29.4 µM (inactive)
same,GI50,BT-549,0.0395 µM (active)
same,GI50,MCF7,56.5 µM (inactive)
same,GI50,UO-31,36.9 µM (inactive)
same,GI50,OVCAR-3,27.7 µM (inactive)
same,GI50,SK-OV-3,> 100 µM (inactive)
same,GI50,TK-10,56 µM (inactive)
same,GI50,SK-MEL-2,80 µM (inactive)
same,GI50,OVCAR-8,8.95 µM (inactive)
same,GI50,CCRF-CEM,1.79 µM (inactive)
same,GI50,SF-295,57.7 µM (inactive)
same,GI50,SF-268,73.3 µM (inactive)
same,GI50,MDA-MB-231,44.8 µM (inactive)
same,GI50,NCI/ADR-RES,22.8 µM (inactive)
same,GI50,SN12C,49.2 µM (inactive)
same,GI50,NCI-H23,> 100 µM (inactive)
same,GI50,SK-MEL-28,37.4 µM (inactive)
same,GI50,KM12,28.2 µM (inactive)
same,GI50,UACC-257,13.7 µM (inactive)
same,GI50,IGROV-1,68.2 µM (inactive)
same,GI50,ACHN,32.8 µM (inactive)
same,GI50,OVCAR-4,26.6 µM (inactive)
same,GI50,M14,> 100 µM (inactive)
same,GI50,COLO 205,17 µM (inactive)
same,GI50,DU-145,17 µM (inactive)
same,GI50,PC-3,27.8 µM (inactive)
same,GI50,HCC 2998,1.9 µM (inactive)
same,GI50,UACC-62,24.3 µM (inactive)
same,GI50,NCI-H460,> 100 µM (inactive)
same,GI50,MOLT-4,41.6 µM (inactive)
same,GI50,LOX IMVI,43.9 µM (inactive)
same,GI50,CAKI-1,85.9 µM (inactive)
same,GI50,SR,22.9 µM (inactive)
same,GI50,Malme-3M,81.8 µM (inactive)
same,GI50,HOP-62,> 100 µM (inactive)
same,GI50,HCT-116,63.8 µM (inactive)
same,GI50,HL-60,27.6 µM (inactive)
same,GI50,U-251,38.5 µM (inactive)
same,GI50,K562,37.6 µM (inactive)
same,GI50,HT-29,17.2 µM (inactive)
same,GI50,A549,33.8 µM (inactive)
same,GI50,RPMI-8226,34.2 µM (inactive)
same,GI50,OVCAR-5,> 100 µM (inactive)
same,GI50,SW-620,24.8 µM (inactive)
same,GI50,SF-539,31.3 µM (inactive)
same,GI50,T47D,19.1 µM (inactive)
same,GI50,NCI-H522,25.6 µM (inactive)
same,GI50,SNB-19,57.7 µM (inactive)
same,GI50,NCI-H226,78.3 µM (inactive)
